Data taken from paper PMC7970697, “Inhibition and Induction by Poziotinib of Different Rat Cytochrome P450 Enzymes In Vivo and in an In Vitro Cocktail Method” (Frontiers in Pharmacology, 2021).
Read-outs that look alike come from different tables or passages of the source.

What was measured:
[1] = test system: cyp2e1; test: Effect of poziotinib on cyp2e1 activity in rats (chlorzoxazone pharmacokinetics); assay type: in vivo, Sprague-Dawley rats; details: poziotinib 5 mg/kg oral 7 days, chlorzoxazone probe
Procedure: (§3) Twelve male Sprague-Dawley rats (230 ± 20 g) were randomly divided into treated and control groups, with 6 in each group. […] The supernatant was mixed with 200 μL of acetonitrile and 20 μL of 0.5 μg/ml diazepam (IS), vortexed for 30 s, centrifuged at 13,000 rpm for 5 min, and the supernatant was injected into the UPLC-MS/MS system for analysis.
(§4) Pharmacokinetic parameters were calculated using DAS software (Version 3.2.8). SPSS software (version 16.0; SPSS Inc., Chicago, IL, United States) was used to analyze the significance of differences between the main pharmacokinetic parameters. p < 0.05 was considered statistically significant. GraphPad (version 8.0; GraphPad Software Inc., San Diego, CA, United States) was used to calculate IC50 and plot the plasma concentration-time curves and inhibition plots (type of inhibition, time- and concentration-dependence).

[2] = molecular target: T1, cyp2b1 (Rattus norvegicus, UniProt P00176); test: Time- and concentration-dependent inhibition in RLMs, bupropion; assay type: in vitro ADME; parameters: from tissue; host or cells: rat liver microsomes, prepared in-house
T1 sequence (P00176 1-491): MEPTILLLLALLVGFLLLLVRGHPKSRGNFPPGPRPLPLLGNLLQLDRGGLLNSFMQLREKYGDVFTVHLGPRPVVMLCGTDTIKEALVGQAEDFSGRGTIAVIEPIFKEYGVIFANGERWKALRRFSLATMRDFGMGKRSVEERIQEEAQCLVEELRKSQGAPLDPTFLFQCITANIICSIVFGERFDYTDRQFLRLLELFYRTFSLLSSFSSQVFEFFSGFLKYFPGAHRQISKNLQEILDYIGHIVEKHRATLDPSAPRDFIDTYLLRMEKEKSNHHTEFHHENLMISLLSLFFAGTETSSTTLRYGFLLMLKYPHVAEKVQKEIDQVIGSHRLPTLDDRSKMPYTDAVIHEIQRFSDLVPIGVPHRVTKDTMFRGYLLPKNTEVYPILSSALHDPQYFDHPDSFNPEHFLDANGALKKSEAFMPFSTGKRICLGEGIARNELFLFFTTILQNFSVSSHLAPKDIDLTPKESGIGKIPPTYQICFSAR
Procedure: A mixture containing 1 mg/ml of RLMs, different concentrations of poziotinib (0, 2, 4, 8 and16 μM for 2b1; 0, 5, 10 20 and 40 μM for 2c11), and NADPH was pre-incubated at 37°C for 0, 5, 10, and 20 min; Methanol instead of poziotinib was performed as control. Then 20 μM bupropion or 100 μM tolbutamide was added and incubated at 37°C for 30 min. The reactions were carried out and analyzed in triplicate as described in 2.3.

[3] = molecular target: T1, cyp2b1; test: Mechanism of inhibition (Lineweaver-Burk plots), bupropion in RLMs; assay type: in vitro ADME; parameters: from tissue; host or cells: rat liver microsomes, prepared in-house
Procedure: (§1) To elucidate the mechanism of inhibition of cyp2b1 and 2c11 by poziotinib, we examined the interaction of different concentrations of poziotinib with bupropion and tolbutamide, respectively. Poziotinib was preincubated with 1 mg/ml of RLMs and probe substrate in a 37°C shaking water bath for 5 min, following which NADPH was added and incubated for 30 min. The concentrations of poziotinib were 0, 2, 4, 8 and 16 μM for 2b1, 0, 5, 10 20 and 40 μM for 2c11. The concentrations of bupropion were 5, 10, 20, and 40 μM, and the concentrations of tolbutamide were 25, 50, 100, and 200 μM. Poziotinib was incubated with different concentrations of the probe substrates in triplicate. The reactions were carried out, stopped, and processed as described in 2.3. Lineweaver-Burk plots were graphed.

[4] = molecular target: T2, cyp2d1 (Rattus norvegicus, UniProt P10633); test: Cocktail method IC50 in rat liver microsomes, dextromethorphan probe; assay type: in vitro ADME
T2 sequence (P10633 1-504): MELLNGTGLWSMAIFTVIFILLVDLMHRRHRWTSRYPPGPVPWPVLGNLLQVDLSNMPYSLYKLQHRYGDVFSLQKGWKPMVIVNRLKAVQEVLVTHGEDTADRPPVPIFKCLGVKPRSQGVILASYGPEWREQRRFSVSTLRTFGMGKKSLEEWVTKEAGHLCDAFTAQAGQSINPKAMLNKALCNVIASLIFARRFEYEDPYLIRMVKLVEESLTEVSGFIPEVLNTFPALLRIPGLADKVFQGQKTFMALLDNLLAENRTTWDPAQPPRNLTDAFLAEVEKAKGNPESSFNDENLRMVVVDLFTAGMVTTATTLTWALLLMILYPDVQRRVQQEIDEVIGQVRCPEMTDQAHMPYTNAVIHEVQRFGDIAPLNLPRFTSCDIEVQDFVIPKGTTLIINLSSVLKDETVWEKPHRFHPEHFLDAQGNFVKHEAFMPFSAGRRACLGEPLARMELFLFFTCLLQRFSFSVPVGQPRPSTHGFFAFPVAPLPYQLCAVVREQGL
Procedure: (§2) The cocktail method was employed to analyze the effects of poziotinib on cyp1a2, cyp2b1, cyp2c11, cyp2d1, cyp2e1, and cyp3a1/2. […] Then half-maximal inhibitory concentration (IC50) of poziotinib was determined with all of the CYPs. […]. To this cocktail, 1 mg/ml of RLMs, 100 mM potassium phosphate buffer (pH 7.4), poziotinib (1, 2.5, 5, 10, 25, 50, or 100 μM) were added to obtain a final volume of 200 μL. After pre-incubation of this mixture for 5 min in a shaking water bath at 37°C, 1 mM NADPH was added to start the reaction. The reactions were allowed to proceed for 30 min, after which 200 μL of acetonitrile and 20 μL of IS were added to terminate the reactions. The mixtures were vortexed for 30 s and centrifuged again at 13,000 rpm for 5 min.

[5] = test system: cyp3a1/2; test: Cocktail method IC50 in rat liver microsomes, midazolam probe; assay type: in vitro ADME
Procedure: as §2

[6] = molecular target: T2, cyp2d1; test: Effect of poziotinib on cyp2d1 activity in rats (dextromethorphan pharmacokinetics); assay type: in vivo, Sprague-Dawley rats; parameters: from tissue; host or cells: living male Sprague-Dawley rats (whole animal); details: poziotinib 5 mg/kg oral 7 days, dextromethorphan probe
Procedure: as §3, §4

[7] = molecular target: T3, cyp2c11 (Rattus norvegicus, UniProt P08683); test: Mechanism of inhibition (Lineweaver-Burk plots), tolbutamide in RLMs; assay type: in vitro ADME; parameters: from tissue; host or cells: rat liver microsomes, prepared in-house
T3 sequence (P08683 1-500): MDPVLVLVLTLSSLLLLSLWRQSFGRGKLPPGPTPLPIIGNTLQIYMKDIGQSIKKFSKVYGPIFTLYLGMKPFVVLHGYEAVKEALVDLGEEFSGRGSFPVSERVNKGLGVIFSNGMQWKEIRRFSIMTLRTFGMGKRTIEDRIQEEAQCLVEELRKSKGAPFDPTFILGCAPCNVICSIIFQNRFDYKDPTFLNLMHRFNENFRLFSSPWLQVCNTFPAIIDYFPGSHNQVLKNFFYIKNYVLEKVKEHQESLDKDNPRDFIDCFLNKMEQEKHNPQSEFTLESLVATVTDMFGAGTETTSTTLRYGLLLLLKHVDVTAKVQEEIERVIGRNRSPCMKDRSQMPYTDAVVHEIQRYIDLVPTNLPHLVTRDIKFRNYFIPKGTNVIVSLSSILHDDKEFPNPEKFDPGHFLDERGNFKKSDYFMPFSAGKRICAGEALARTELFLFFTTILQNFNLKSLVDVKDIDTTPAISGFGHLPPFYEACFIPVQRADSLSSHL
Procedure: as §1

`C=CC(=O)N1CCC(Oc2cc3c(Nc4ccc(Cl)c(Cl)c4F)ncnc3cc2OC)CC1` [Poziotinib] was tested, and the “effect on cyp2e1 activity in rats” value [1] was “induced cyp2e1 activity”, the “time- and concentration-dependent inhibition of cyp2b1” value ([2]; pre-incubation 0, 5, 10, 20 min, poziotinib 2-16 μM) was “no time- or concentration-dependent inhibitory effects” and the “reversibility of inhibition of cyp2b1” value ([2]; pre-incubation 0, 5, 10, 20 min with NADPH) was “reversible”. For the same compound, the “type of inhibition of cyp2b1” value ([3]; Lineweaver-Burk plots) was “competitive”, the Ki ([3]; rat liver microsomes, bupropion 5-40 μM, poziotinib 0-16 μM, secondary plot) was 16.2 µM and the “inhibitory effect on cyp2d1 (in words)” value [4] was “weak inhibition”. For the same compound, the “inhibitory effect on cyp2d1 (in words)” value ([4]; listed as poziotinib) was “not obvious”, the IC50 at 30 min ([4]; pH 7.4, probe dextromethorphan (10 μM), 10 μM dextromethorphan, cocktail, 30 min) was 62 µM and the “inhibitory effect on cyp3a1/2 (in words)” value [5] was “did not show any obvious inhibitory effect”. For the same compound, the “inhibitory effect on cyp3a1/2 (in words)” value ([5]; listed as poziotinib) was “not obvious”, the IC50 at 30 min ([5]; pH 7.4, probe midazolam (5 μM), 5 μM midazolam, cocktail, 30 min) was 303 µM and the “effect on cyp2d1 activity in rats” value [6] was “no obvious inhibitory effect”. For the same compound, the “type of inhibition of cyp2c11” value ([7]; Lineweaver-Burk plots) was “competitive” and the Ki ([7]; rat liver microsomes, tolbutamide 25-200 μM, poziotinib 0-40 μM, secondary plot) was 17.7 µM.
